Experiment [1] has as its system lipoprotein CE and FC in whole blood (red blood cells). Kind of experiment: Incubation of whole blood with PC or PI vesicles: lipoprotein CE and FC. In kind it is cell-based, human. On the procedure:
Referring now to FIG. 4, there is graphically depicted the effect of PI or PC vesicles on lipoprotein CE and FC. Incubation of whole blood with PC vesicles results in a 60% increase in the CE content of the lipoproteins, while FC content is reduced by about 10%. […] Negatively charged phospholipids appeared to promote a reciprocal exchange of CE for FC between red blood cells and the lipoprotein particles. […] It has previously been taught that red blood cells cannot store CE and therefore utilize a membrane-bound CE hydrolase to maintain membrane FC levels. Without wishing to be bound by theory, the results therefore indicate that PI stimulates the degradation of lipoprotein CE.

In another experiment the test system is biliary FC output. As to the kind of experiment: Biliary FC output after injection of PI or PC vesicles containing [^3H]-FC. The note with it: sacrificed at 30 min. In kind it is in vivo, rabbit. The procedure:
Rabbits are injected with 40 μmol PI or PC vesicles containing 400 μCi […]. Animals are sacrificed at 30 min, and bile is aspirated from the gall bladder. In addition the livers are harvested, homogenized and tissue radioactivity determined. Sterol excretion in the faeces is measured similarly except that faecal cholesterol levels are measured over a time period of 96 hours.
Referring now to FIG. 6, there is shown the effect of PI on biliary FC output after rabbits are injected with PI or PC vesicles containing [^3H]-FC. […] Without wishing to be bound by theory, PI may enhance the clearance of cholesterol from plasma and promote its uptake and accumulation in the liver. In addition, PI injection appears to be associated with an increase output of cholesterol into bile. About 20-fold enhanced output of cholesterol into bile is observed (FIG. 6).

The subject of another experiment is HDL, LDL and VLDL. Kind of experiment: Lipoprotein surface charge after injection of PI or PC vesicles into rabbits (agarose gel electrophoresis). In kind it is in vivo, rabbit. On the procedure:
(§1) 1-palmitoyl-2-oleoyl-phosphatidylcholine (PC) and 1-palmitoyl-2-oleoyl phosphatidylinositol (PI) vesicles are prepared by drying to completion 40 μmol of each lipid into a 12×75 mm culture tube under N2. The lipids are solubilized in 3 mL of sterile saline comprising 150 mM sodium chloride (pH 7.2) by sonication for 1 minute at constant duty cycle. The vesicles are incubated at 37° C. for 10 minutes and then sonicated at a high output for 4 minutes in 10° C. water bath under N2. In order to determine the rate of clearance of cholesterol from the test animals (rabbits), a radioactive tracer is added to the vesicle preparations prior to injection into the rabbit. 200 μL of 1 μCi/μmL [^3H]-FC is dried into a 12×75 mm culture tube with 40 μmol of PI or POPC. 3 ml of PBS is added to the dried lipids and the mixture is sonicated as described above. This tracer/vesicle preparation is injected and then 5 min later, the PI or PC vesicles were injected and blood is sampled as described below.
(§2) Male New Zealand white rabbits (3.5-4.0 kg) are fasted for 12 hours prior to injection and remain fasted until after data for the final time point is taken. Rabbits have free access to water during this time. A catheter is inserted into the marginal ear vein and blood samples are collected into tubes containing 7.5% (K3) EDTA solution at the desired time points. A pre-injection blood sample is taken and the vesicle solution of either PI (n=4), or PC (n=2) or saline (n=1) is injected into the marginal ear vein. A sample of blood is removed at 10, 30 min, 1, 3, 6 and 24 h after the injection. All blood samples are placed on ice and then centrifuged at 3000 rpm for 15 min at 4° C. to separate the plasma. In order to ensure that lecithin:cholesterol acyl transferase (LCAT) is inhibited in the stored plasma, iodoacetamide (150 mM) is added to plasma samples as taught by Guerin et al. (1994).
Lipoprotein fractions are isolated by sequential ultracentrifugation (VLDL+IDL, d<1.019 g/mL; LDL, d=1.019-1.063 g/mL; and HDL, d=1.063-1.21 g/mL) as known to one of skill in the art, and lipoprotein lipid composition (total cholesterol, free cholesterol (FC), and triglyceride (TG) concentrations) are determined enzymatically using kits from Roche Diagnostic (Laval, PQ). An aliquot of each lipoprotein isolated is dialysed into PBS and its surface charge characteristics were determined by electrophoresis on pre-cast 0.5% agarose gels using the procedure of Sparks and Phillips (1992).
Referring now to FIG. 1, there is illustrated the effect of injection of PI and PC vesicles on the estimated surface potential of HDL, LDL, and VLDL proteins in vivo. […] PC, which is a neutral phospholipid, may also bind to the lipoproteins. However since PC is a neutral phospholipid, no significant change in the migration of the lipoproteins is observed. The increased migratory property of lipoproteins in a gel peaks following injection of PI and returns to normal by about 24 hours. […] Similarly, the VLDL fraction is estimated to have an initial surface potential of about −8.8 mV, which increases to about −11.2 mV after 10 minutes. LDL is estimated to have an initial surface potential of about −3.9 mV, and peaks about 60 min after the PI injection at about −8.0 mV.

In the next experiment the test system is HEPG2 cells. As to the kind of experiment: Cellular cholesterol uptake from PI-enriched plasma or lipoproteins. It is filed as cell-based. An excerpt:
Almost complete inhibition of the enzyme that produces CE parallelled major increases in the amount of this lipid in VLDL particles. […] Cholesterol transport into VLDL may instead be governed by the charge and structural characteristics of plasma lipoproteins, which may regulate interfacial interactions with specific receptors and cholesterol storage depots on cell surfaces. […] Without wishing to be limited by theory, it is considered that the enhanced uptake of cholesterol from PI-enriched HDL is not facilitated by a scavenger receptor-BI mediated pathway but is associated with a novel protein kinase C dependent uptake pathway. Therefore, it is considered that control of lipoprotein charge by the administration of charged compounds will allow for the manipulation of FC and CE influx/efflux from cell surfaces and the selective control of plasma cholesterol metabolism.

Experiment [2] concerns cholesterol associated with HDL, LDL and VLDL. As to the kind of experiment: Incubation of plasma with PI: lipoprotein cholesterol levels. The note with it: added to blood plasma of fasted normolipidemic subject. It is filed as biochemical, human. On the procedure:
Referring now to FIG. 2, there is graphically depicted the effect of incubations with PI on the amount of cholesterol associated with HDL (high density lipoprotein), LDL (low density lipoprotein) and VLDL (very low density lipoproteins) following isolation of lipoproteins from plasma of fasted normolipidemic subjects. […] This appears due to the electrostatic effects, that increased lipoprotein PI concentrations have on cholesteryl ester transfer protein. Previous work has shown that this protein controls interlipoprotein cholesterol transfers and is affected by lipoprotein charge (Lagrost 1997).

For another experiment, the system named is [^3H]-FC in plasma. As to the kind of experiment: Clearance of [^3H]-FC from the blood of a rabbit. It is filed as in vivo. The procedure: as §1, §2
Referring now to FIG. 5, there is shown the clearance of [^3H]-FC at various times after rabbits are injected with [^3H]-FC and either PI or PC vesicles. […] In comparison, rabbits injected with PC contain approximately 90% of the injected radioactivity after 1 h.

“Also recorded” adds a separate entry of the source.

As for `CCCCCCCC/C=C\CCCCCCCC(=O)O[C@H](COC(=O)CCCCCCCCCCCCCCC)COP(=O)(O)O[C@@H]1[C@H](O)[C@H](O)[C@@H](O)[C@H](O)[C@H]1O` [PI, 1-palmitoyl-2-oleoyl phosphatidylinositol], in experiment [1], the “increase of lipoprotein FC levels” value was “about 40%” and the “reduction of lipoprotein CE” value is “about 40%”. The “[^3H]-FC in plasma and liver in comparison to PC” value in the experiment on biliary FC output is “reduction of [^3H]-FC in plasma, and an elevation of [^3H]-FC in the liver”. Moreover, the “enhanced output of cholesterol into bile” value in the experiment on biliary FC output (in comparison to PC) was “About 20 fold”. In addition, the “HDL surface potential, peak negative charge” value in the experiment on HDL, LDL and VLDL (about 10 minutes after injection, background about −12.2 mV prior to injection, estimated from gel migration) is on record as “about −18.0 mV”. The “LDL surface potential, peak” value in the experiment on HDL, LDL and VLDL (about 60 min after injection, initial about −3.9 mV, estimated) is listed as “about −8.0 mV”. For the same molecule, the VLDL surface potential entry in the experiment on HDL, LDL and VLDL (after 10 minutes, initial about −8.8 mV, estimated) is “about −11.2 mV”. In addition, in the experiment on HDL, LDL and VLDL (after injection), the “time for increased lipoprotein migration to return to normal” value is recorded as “about 24 hours”. The “effect on lipoprotein net negative surface charge / migration of HDL, LDL and VLDL into agarose gel” value in the experiment with HDL, LDL and VLDL (intravenous injection of vesicles, fasted rabbit) is reported as “significant increase; also recorded: increased migration of all lipoprotein fractions”. In the experiment with HEPG2 cells, the “effect on cellular cholesterol uptake, PI enrichment of LDL” value is “does not” and the “effect on cellular cholesterol uptake, PI-enrichment of plasma or HDL” value is listed as “stimulates cellular cholesterol uptake”. The “effect on cholesterol in LDL, VLDL and HDL” value in experiment [2] is “reduction of cholesterol in LDL and VLDL and increase in HDL cholesterol levels”. The “[^3H]-FC in plasma, of the initial dose” value in experiment [^3H]-FC in plasma (after about 1 h) is “about 15%”. Moreover, the “half-life of [^3H]-FC shorter than for PC injected rabbits” value in experiment [^3H]-FC in plasma (rabbit, in vivo) was “about 30 fold”.

Values taken from patent publication US7390783B2, “Charged phospholipid compositions and methods for their use” (Ottawa Heart Institute Research Corporation, priority 2000, dated 2008).
